From patent EP0151577B1 (priority 1983, dated 1984)

Key:
souris [1] = assay: Anti-stress activity: swimming endurance; assay type: in vivo; details: 100 mg/kg i.p., souris observed up to 540 min; témoins 385 ± 31 min
Experimental: Au tableau 4, la lettre N designe le nombre d'animaux (souris). Un astérisque indique une activite importante. Deux astérisques indiquent une possibilité d'activité positive. Dans I'essai d'endurance a la nage, on a observe les souris jusqu'à 540 minutes, la durée moyenne de nage pour les souris témoins étant de 385 ± 31 minutes.
(N) - représente le nombre d'animaux * - activité importante ** - activite positive possible Pour I'endurance a la nage, les souris ont été observées jusqu'à 540 min, la durée moyenne de nage chez les souris témoins était de 385 + 31 min. *** - La leucocytose a été induite par 0,1 ml de lait (sous-cutanée) avant traitement avec le medicament.

souris [2] = assay: General pharmacological profile: respiratory rate; assay type: in vivo; details: for Cadence respira-toire: souris
Description: (§1) Activite motrice spontanée: MODIGH, K., Central and peripheral effects of 5-hydroxytryptophan on motor activity in mice. Psychopharmacologia (Berlin), 23, 48, 1972. Cadence respiratoire: […], S., and VALZELLI, L. Serotonin and cardiovascular system, Chapter 9, in "Serotonin", Elsevier Publ. Co. Amsterdam 1965.
COHEN, Y. and BLANCHARD, P. Influence de la chelation du calcium sur les effets tensionnels de la sérotonine chez le chien. J. Physiol., 52, 569,1960.
BRAUNWALD, E. Control of myocardial oxygen consumption: Physiologic and clinical considerations. Am. J. Cardiol., 27 (4), 416,1971.

Rythme cardiaque = assay: Cardiovascular activity: heart rate; assay type: in vivo
Description: (§2) Le protocole experimental était celui décrit dans "Sugar Derivatives of Indolamines. part V: Cardiovascular Effects and "Anti-stress" Activity of Desoxyfructose Derivative of Serotonin and 5-Metho-xy- tryptamin", L. Mester, M. Mester, K.P. Bhargava, C. Labrid, G. Dureng and M. Cheucle, THROMBOSIS […], 15,245,1979.

souris [3] = assay: Morphine test (antagonism); assay type: in vivo; details: 100 mg/kg i.p., 15 min after administration
souris [4] = assay: General pharmacological profile: spontaneous motor activity; assay type: in vivo
Description: as §1

Tension sanguine = assay: Cardiovascular activity: blood pressure; assay type: in vivo
Description: as §2

souris [5] = assay: General pharmacological profile: defecation; details: 100 mg/kg i.p., 15 min after administration, Tableau 3
Experimental: (§3) Les mesures ont été faites a 15, 30 et 60 minutes après I'administration par voie intrapéritonéale (i.p.) a des souris.

souris [6] = assay: Anticonvulsant activity, pentylenetetrazol; assay type: in vivo; details: 100 mg/kg i.p., 15 min after administration
souris [7] = assay: Inclined screen test (neurotoxicity); details: 100 mg/kg i.p., 15 min after administration, Tableau 3
Experimental: as §3

[8] = Acute toxicity, DL50 i.p.; assay type: in vivo, souris; details: mouse, in vivo, ip, read-out: DL50 (ip)en toxicité aigue
Experimental: La valeur DL50 i.p. pour tous ces derives a été trouvée voisine de 800 mg/kg et la valeur DL 50 i.v. est supérieure a 5 g/kg.

souris [9] = assay: Pentobarbital sleeping time; assay type: in vivo
Experimental: as §3

souris [10] = assay: General pharmacological profile: hypersensitivity to noise; details: 100 mg/kg i.p., 15 min after administration, Tableau 3
Experimental: as §3

souris [11] = assay: Tremor score in mice pretreated with a MAO inhibitor (Harmaline); assay type: in vivo; details: 75 mg/kg S.C., 1 h after Harmaline 25 mg/kg P.O., 5 souris, scored 5 to 75 min
Experimental: Les conditions expérimentales étaient les suivantes:
Chez des souris prétraitées par un inhibiteur de la MAO (Harmaline 25 mg/kg/ P.O.), I'injection de 5HTP (1 heure après l'IMAO) entraîne l'apparition de tremblements plus ou moins généralisés, accompagnés ou non d'hyperactivité motrice et qui sont dus a I'accumulation de sérotonine non dégradée au niveau des récepteurs post-synaptiques cérébraux. On peut établir pour chaque souris une cotation chiffrée suivant l'intensité des symptômes observes au cours du temps (cotation toutes les 5 min. entre la 5ème et la 45ème min. après I'injection de 5 HTP puis toutes les 15 min. jusqu'à la 75ème min.).
On additionne en une score total tous les chiffres obtenus aux différents temps sur des lots de 5 ou 10 souris.
Les actions du 5 HTP ont été comparées a celles du DF-5HTP.

souris [12] = assay: Vertical pole climbing test; assay type: in vivo; details: 100 mg/kg i.p., 15 min after administration
souris [13] = assay: Rotarod test; details: 100 mg/kg i.p.; témoin 11,3 ± 3,1
Experimental: as §3

souris [14] = assay: Anticonvulsant activity, MES; assay type: in vivo
Description: Activite anticonvulsivante (MES): % de protection Temps de sommeil au pentobarbital: WYATT, R.J., ZARKONE, V. […], K., DEMENT, W.C., SMYDER, F. and SJOERDSMA, A., Effects of 5-Hydroxytryptophan on the sleep of normal human subjects. Electroencephaly and Clinical Neurophysiology 30, 5051971.

souris [15] = assay: Catatonia; details: 100 mg/kg i.p., 15 min after administration
[16] = tested on: réponse à l'obstruction de la carotide; assay: Cardiovascular activity: response to carotid occlusion (CO); assay type: in vivo
Description: as §2

[17] = In vivo metabolism of radioactive compounds, hamster plasma; details: au bout de 4 heures, figure 2
Description: La mesure de la radioactivite des diverses fractions isolées du sang des hamsters traités permet de caractériser les metabolites, lesquels sont ainsi isolés et identifies par électrophorèse. Les metabolites acides HIAA et IAA sont séparés ensemble.
On a porté le temps en abscisses (exprimé en heures) et en ordonnées le pourcentage du compose caractérisé dans le plasma.

M. Leprae = assay: Incorporation of 3H-DOPA by M. leprae in vitro; assay type: cell-based, Mycobacterium leprae; details: 6 h
Description: Le tableau 6 rassemble des résultats d'essai concernant l'activité du DF-5HTP sur l'incorporation de la DOPA dans les Mycobacteries de la lèpre. Le protocole experimental était celui décrit dans JAYARAMAN, P., […], P.R., MESTER, M. and MESTER, L. Inhibition of the incorporation of ^3H-DOPA in Mycobacterium leprae by Desoxyfructo-serotonin. Biochem. Pharm., 29, 2526,1980.
On a inoculé 5 x 10^6 M. leprae par tube; le milieu était un tampon phosphate à pH 6,8. La quantité de 3H-DOPA était de 1 µ. Ci/tube.
Protocole: Chaque tube de 0,5 ml est inocule de 5 x 10^6 M. leprae et de 1 µ Ci de ^3H-DOPA. Après 6 heures, I'incorporation de la DOPA radioactive est enregistrée en DPM selon la technique utilisée dans JAYARAMAN, P., […], P.R., MESTER, M. and MESTER, L. Inhibition of the Incorporation of ^3H-DOPA in Mycobacterium leprae by Desoxyfructo-serotonin. Biochem. Pharm., 29,2526,1980.

[18] = tested on: cellules des neuroblastomes; assay: Inhibition of serotonin incorporation into neuroblastoma cells in vitro; assay type: cell-based
[19] = 100 mg/kg i.p., 15 min after administration, Tableau 3
[20] = 10 mg par voie cérébroventriculaire
[21] = 100 mg/kg (ip), 15 min, Tableau 2

Molecule: N[C@@H](Cc1c[nH]c2ccc(O)cc12)C(=O)O [5-HTP, 5-hydroxytryptophane, reference compound]
- Endurance à la nage % d'augmentation (souris [1]): 40^** %
- Cadence respira-toire (souris [2]; 50 mg/kg (ip)): sans effet
- Cadence respira-toire (souris [2]; 100 mg/kg (ip), Tableau 2): augmentation
- Cadence respiratoire (souris [2]; [19]): Légère augmentation
- Rythme cardiaque Durée (min) (Rythme cardiaque; [20]): non mani-fes-tae jus-qu'à 240
- Rythme cardiaque Mesure à (Rythme cardiaque; [20]): 5 min
- Rythme cardiaque Pic (Rythme cardiaque; [20]): 30 min
- Rythme cardiaque Durée (Rythme cardiaque; 100 mg par voie intraveineuse): 60 min
- Rythme cardiaque Mesure à (Rythme cardiaque; 100 mg par voie intraveineuse): 1 min
- Rythme cardiaque Pic (Rythme cardiaque; 100 mg par voie intraveineuse): 30 min
- Essai à la morphine (souris [3]): Négatif (pas d'antagonisme)
- Activité motrice spontanée (souris [4]; 50 mg/kg (ip), souris): sans effet
- Activité motrice spontanée (souris [4]; 100 mg/kg (ip), souris, Tableau 2): d'abord légère augmentation et ensuite dimi-nution légère
- Activité motrice spontanée (souris [4]; [19]): Légère augmentation
- Tension sanguine Durée (Tension sanguine; [20]): 240 min
- Tension sanguine Mesure à (Tension sanguine; [20]): 1 min
- Tension sanguine Pic (Tension sanguine; [20]): 15 min
- Tension sanguine Durée (Tension sanguine; 100 mg par voie intraveineuse): 60 min
- Tension sanguine Mesure à (Tension sanguine; 100 mg par voie intraveineuse): 1 min
- Tension sanguine Pic (Tension sanguine; 100 mg par voie intraveineuse): 10 min
- Défécation (souris [5]): oui
- Activité anticonvulsivante 2.Pentylènetetrazol (souris [6]): 0%
- Tamis incliné (souris [7]): Pas d'effet neurotoxique
- LD50 [8]: > 800 mg/kg
- Temps de sommeil au pentobarbital % du témoin (témoin =100) (souris [9]; 50 mg/kg (ip), 15 min): 285 % du témoin
- Temps de sommeil au pentobarbital % du témoin (témoin =100) (souris [9]; 50 mg/kg (ip), 30 min): 222 % du témoin
- Temps de sommeil au pentobarbital % du témoin (témoin =100) (souris [9]; 50 mg/kg (ip), 60 min): 136 % du témoin
- Temps de sommeil au pentobarbital % du témoin (témoin =100) (souris [9]; [21]): 295 % du témoin
- Temps de sommeil au pentobarbital % du témoin (témoin =100) (souris [9]; 100 mg/kg (ip), 30 min): 276 % du témoin
- Temps de sommeil au pentobarbital % du témoin (témoin =100) (souris [9]; 100 mg/kg (ip), 60 min): 279 % du témoin
- Hypersensibilité au bruit (souris [10]): oui
- Score total (tremblements) (souris [11]): 146
- Essai de grimpé sur un baton vertical (souris [12]): Sans effet
- Performance à l'essai Rotarod Moyenne (Sec) (souris [13]): 66,2 ± 6,4 (30) Sec
- Activité anticon-vulsivante MES % protection (souris [14]; 50 mg/kg (ip), 15 min): 20%
- Activité anticon-vulsivante MES % protection (souris [14]; 50 mg/kg (ip), 30 min): 25%
- Activité anticon-vulsivante MES % protection (souris [14]; 50 mg/kg (ip), 60 min): 25%
- Activité anticon-vulsivante MES % protection (souris [14]; [21]): 50%
- Activité anticon-vulsivante MES % protection (souris [14]; 100 mg/kg (ip), 30 min): 33,3%
- Activité anticonvulsivante 1. MES (souris [14]; [19]): 60%
- Catatonie (souris [15]): non
- REPONSE CO Durée [16, 20]: 105 min
- REPONSE CO Mesure à [16, 20]: 1 min
- REPONSE CO Pic [16, 20]: 10 min
- REPONSE CO Durée ([16]; 100 mg par voie intraveineuse): 45 min
- REPONSE CO Mesure à ([16]; 100 mg par voie intraveineuse): 5 min
- REPONSE CO Pic ([16]; 100 mg par voie intraveineuse): 15 min

Molecule: désoxyfructo-sérotonine [DF-5HT, reference compound]
- niveau du compose non transformé dans le plasma [17]: insignifiante
- incorporation de 3H-DOPA par M. Leprae (M. Leprae; 1 µg/ml, Armadillo M.Leprae N°2275/5, témoins 5977): 2431 DPM
- incorporation de 3H-DOPA par M. Leprae (M. Leprae; 1 µg/ml, Armadillo M.Leprae N°2275/5 Tués par la chaleur, témoins 915): 410 DPM
- incorporation de 3H-DOPA par M. Leprae (M. Leprae; 1 µg/ml, Armadillo M.Leprae N°2457/103, témoins 4215): 2575 DPM
- incorporation de 3H-DOPA par M. Leprae (M. Leprae; 1 µg/ml, Armadillo M.Leprae N°2457/103 Tués par la chaleur, témoins 2855): 2110 DPM
- incorporation de 3H-DOPA par M. Leprae (M. Leprae; 5 µg/ml, Armadillo M.Leprae N°2275/5, témoins 5977): 2264 DPM
- incorporation de 3H-DOPA par M. Leprae (M. Leprae; 5 µg/ml, Armadillo M.Leprae N°2275/5 Tués par la chaleur, témoins 915): 566 DPM
- incorporation de 3H-DOPA par M. Leprae (M. Leprae; 5 µg/ml, Armadillo M.Leprae N°2457/103, témoins 4215): 1485 DPM
- incorporation de 3H-DOPA par M. Leprae (M. Leprae; 5 µg/ml, Armadillo M.Leprae N°2457/103 Tués par la chaleur, témoins 2855): 1640 DPM
- % Inhibition à 0°C de l'incorporation de la sérotonine dans les cellules nerveuses ([18]; 0°C): 95%
- % Inhibition à 25°C de l'incorporation de la sérotonine dans les cellules nerveuses ([18]; 10-^4 Mol, 25°C): 90%
